Data on seven compounds can be found in patent US20240245629A1, “USE OF ATOVAQUONE AND PROGUANIL FOR REDUCING STEROID USE, ALL-CAUSE HOSPITALIZATION, OR ADVANCED THERAPY USE IN A SUBJECT DIAGNOSED WITH INFLAMMATORY BOWEL DISEASE, CROHN'S DISEASE, OR ULCERATIVE COLITIS” (Elevaid Therapeutics, Inc., priority 2020, published 2024).

Entries after “also recorded” stand apart in the source; their conditions may differ. Counter-ions that a name gives are not always drawn. Like-named read-outs stand apart in the source and are kept apart here.

The conditions of data set [1]: cited from earlier work.
Data set [2] has as its system DSS-induced murine colitis. The note with it: cited from earlier work.
A further data set deals with human neutrophils. To be noted: by preventing up-regulation of CD11b; cited from earlier work.
The test system of data set [3] is patients with IBD, CD, and UC. In words: Retrospective propensity-matched cohort study (TriNetX), secondary analysis: A/P vs HAV, HCQ, MES. It counts as in vivo, human. The note with it: propensity score matched, within 1 year of exposure. Here is the method: Using a multi-institutional database, after 1:1 propensity score matching, we identified adult all-cause IBD patients between 2000 and 2019. […] Outcomes were steroid use, hospitalization, or advanced therapy use within 1 year of exposure. The experiments were repeated in Crohn's disease (CD) and ulcerative colitis (UC) patient cohorts. […]
A retrospective cohort study was performed using a de-identified multi-institutional database with 80 contributing healthcare organizations (HCO), including over 113 million patients (TriNetX Research Network, Cambridge, Massachusetts, date of data access Dec. 7, 2023; IRB exempt). TriNetX regularly aggregates clinical data directly from participating HCOs, primarily in the United States, including extensive data quality and accuracy assessment. Institutional information relating to participating HCOs is also de-identified, however, a typical HCO includes a large academic healthcare center with prevalent capabilities for inpatient services, outpatient services, and specialty care services.
A second analysis was performed to identify all adult patients (aged≥18 years) diagnosed with IBD, including Crohn's disease (CD, ICD-10: K50) and/or ulcerative colitis (UC, ICD-10: K51), between Jan. 1, 2000, and Dec. 31, 2019. […] The index event for all groups was the time of the patient's first prescription.
If there were multiple prescriptions, the index event was defined as the date of the first prescription. Information on duration and dosage was not available.
The outcomes of steroid use (yes/no), hospitalization (yes/no), and advanced therapy use (yes/no) were chosen as they are generally regarded as surrogate markers for IBD activity. Steroid use was defined as a prescription for prednisone, methylprednisolone, or budesonide. All-cause hospitalization was used because TriNetX could not specify a cause for hospitalization. Advanced therapy use was defined as a prescription for adalimumab, certolizumab pegol, golimumab, infliximab, vedolizumab, ustekinumab, tofacitinib, azathioprine, mercaptopurine, or methotrexate. Information on the duration and dosage of outcome drugs was also not available.
This created a potential for bias in that many patients may experience one or more of the measured outcomes (steroid use, hospitalization, or advanced therapy use) within the first year of their diagnosis as standard of care. Indexing those patients to a time other than the time of their original diagnosis, for example, to a time when they received a prescription for a different medication, would mitigate that bias.
Comparators that would not only mitigate the index bias, but also address other potential biases, were specifically chosen. […] HAV is also frequently prescribed for travelers, and there happens to be a high degree of geographic overlap among hepatitis A and malaria-endemic regions.
We performed 1:1 greedy nearest neighbor propensity score matching (caliper of 0.1 standard deviations) to balance cohorts on age, sex, race, comorbid conditions (including cardiovascular, pulmonary, rheumatologic, and renal co-morbidities included in the Charlson Comorbidity Index), presence of prior hospitalization, and use of steroids and IBD advanced therapy (as defined above) to control for baseline disease severity and prior presence of any of the measured outcomes (Table 1, Supplemental Table 1). Differences between groups were calculated using either an independent t-test or a chi-square test as appropriate. Estimates of odds ratios (OR), and 95% confidence intervals (CI) were used to describe the outcome risks. P-values of α<0.05 were considered statistically significant.

In the next data set the test system is murine colitis. The note with it: mouse, in vivo, cited from earlier work.
For data set [4], the system named is patients with ulcerative colitis. The note with it: small human trial; cited from earlier work.
Data set [5] deals with ulcerative colitis patient.
The next data set concerns UC patients. To be noted: 60 UC patients; cited from earlier work.
Setting [6] is: Crohn's disease, n = 381 per cohort, A/P vs HCQ.
Where [7] appears, read: all-cause IBD, n = 947 per cohort, A/P vs HCQ.
The mark [8] stands for this setting: ulcerative colitis, n = 405 per cohort, A/P vs HCQ.
Where [9] appears, read: Crohn's disease, n = 313 per cohort, A/P vs MES.
The mark [10] stands for this setting: all-cause IBD, n = 624 per cohort, A/P vs MES.
Where [11] appears, read: ulcerative colitis, n = 260 per cohort, A/P vs MES.

On to `O=C1C(O)=C([C@H]2CC[C@H](c3ccc(Cl)cc3)CC2)C(=O)c2ccccc21` [Atovaquone, trans-2-[4-(4-chlorophenyl)cyclohexyl]-3-hydroxy-1,4-naphthalenedione], for which, in data set [1], the solubility in water entry is reported as “practically insoluble”. Besides, in data set [2] (by reducing mucosal neutrophil accumulation), the “colitis (DSS-induced murine / experimental)” value is “attenuates; also recorded: promoted the resolution”. Also, the “S100A9 and CD11b expression on neutrophil surfaces” value in data set [2] (mouse, in vivo) is recorded as “reduction”. Also, the human neutrophil chemotaxis entry in the data set with human neutrophils is “directly suppressed”.

With `CCN(CCO)CCCC(C)Nc1ccnc2cc(Cl)ccc12` (stereo not drawn) [HCQ, hydroxychloroquine], the “all-cause hospitalization, number of patients” value (“all-cause hospitalization” for short) in data set [3] (setting [6]) was 43; in data set [3] (setting [7]) it was 118; in data set [3] (setting [8]) it was 60. Moreover, the “steroid use, number of patients” value in data set [3] (setting [6]) is 194; in data set [3] (setting [7]) it was 485; in data set [3] (setting [8]), 211. Also, the “advanced therapy use, number of patients” value is recorded as 277 in data set [3] (setting [7]) and 99 in data set [3] (setting [8]). Further, the “murine colitis and associated cancer” value is recorded as “showed efficacy; also recorded: attenuate murine colitis” in the data set with murine colitis and “decrease the incidence” in the data set with murine colitis (listed as Hydroxychloroquine). Further, in data set [4], the “efficacy vs placebo in ulcerative colitis” value is on record as “failed to demonstrate superiority over placebo”.

In the case of `Nc1ccc(O)c(C(=O)O)c1` [MES, mesalamine], in data set [3] (setting [9]), the “all-cause hospitalization” value amounted to 53 and the “steroid use, number of patients” value worked out at 162. Besides, in data set [3] (setting [10]), the “advanced therapy use, number of patients” value is 182; the “all-cause hospitalization” value came to 92; the “steroid use, number of patients” value was found to be 307. Also, in data set [3] (setting [11]), the “advanced therapy use, number of patients” value was 31; the “all-cause hospitalization” value is given as 47; the “steroid use, number of patients” value is on record as 111. Moreover, in data set [5] (4.8 grams generic tablets daily, day 1), the “therapeutic effect on colitis” value is on record as “no therapeutic effect”. In addition, in data set [5] (in vivo), the adverse event result is “moderate costochondral chest pain”.

In the case of `[H]/N=C(\N/C(=N/[H])Nc1ccc(Cl)cc1)NC(C)C` [Proguanil hydrochloride, 1-(4-chlorophenyl)-5-isopropyl-biguanide], the solubility in water entry in data set [1] is “sparingly soluble”.

Consider `CCN(CC)CCCC(C)Nc1ccnc2cc(Cl)ccc12` (stereo not drawn) [chloroquine], for which, in the data set with UC patients, the “adverse events compared to sulfasalazine” value is given as “fewer”; the “remission and response rates compared to sulfasalazine” value is reported as “similar”.

Take `C[C@]12C=CC(=O)C=C1CC[C@@H]1[C@@H]2C(=O)C[C@@]2(C)[C@H]1CC[C@]2(O)C(=O)CO` [prednisone]: the colitis symptoms entry in data set [5] (40 mg daily, after 7 days) was “no improvement”.

For the compound `CO[C@H]1/C=C/O[C@@]2(C)Oc3c(C)c(O)c4c(O)c(c5c(nc6cc(C)ccn65)c4c3C2=O)NC(=O)/C(C)=C\C=C\[C@H](C)[C@H](O)[C@@H](C)[C@@H](O)[C@@H](C)[C@H](OC(C)=O)[C@@H]1C` [rifaximin], in data set [5] (10-day course, 275 mg TID), the colitis symptoms entry was “symptoms persisted”.
